IC50 data for 19 molecules are collected here from patent publication US11186592B2, “Thiazolopyridine derivatives as adenosine receptor antagonists” (MERCK PATENT GMBH, priority 2017, dated 2021).

Format in all cases: cell-based
For one assay, the target named is T1, human A2A receptor (Homo sapiens, UniProt P29274).
T1 construct: expressed in transfected cells; host or cells: HEK293
Description: cAMP (HTRF) functional assay, recombinant HEK293 cells expressing human A2A receptor, agonist NECA. The protocol: (§1) The functional activities of human A2A, A2B, A1 and A3 receptors were determined by quantification of cAMP, being the second messenger for adenosine receptors.
(§2) Cells were seeded into 384-well plates, forskolin, test compounds and agonists (CPA for A1- and IB-MECA for A3-receptor) were added. After 30 min incubation, HTRF reagents (cAMP dynamic 2, Cis Bio) were added and the cellular cAMP levels were determined using the ENVISION (Perkin Elmer) plate reader. Obtained raw data were normalized against the inhibitor control and the neural control (DMSO) and the normalized data were fitted using GeneData software.

The target in a further assay is T2, human A2B receptor (Homo sapiens, UniProt P29275).
T2 construct: expressed in transfected cells; host or cells: HEK293
T2 sequence (P29275 1-332): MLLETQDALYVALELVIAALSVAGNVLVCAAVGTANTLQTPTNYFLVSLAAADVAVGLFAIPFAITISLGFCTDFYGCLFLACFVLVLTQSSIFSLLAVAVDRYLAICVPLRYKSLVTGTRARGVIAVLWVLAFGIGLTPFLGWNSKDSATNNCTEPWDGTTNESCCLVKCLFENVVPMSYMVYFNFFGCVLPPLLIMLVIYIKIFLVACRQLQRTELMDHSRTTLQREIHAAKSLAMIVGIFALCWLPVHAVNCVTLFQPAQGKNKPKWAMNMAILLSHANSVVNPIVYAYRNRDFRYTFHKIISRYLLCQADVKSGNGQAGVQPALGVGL
The experiment in a line: cAMP (HTRF) functional assay, recombinant HEK293 cells expressing human A2B receptor, agonist NECA. The protocol:
as §1, §2
Background: In TR-FRET formats the signal depends on donor and acceptor labels being close together.

The target in another assay is T3, human A1 receptor (Homo sapiens, UniProt P30542).
T3 construct: expressed in transfected cells; host or cells: CHO
T3 sequence (P30542 1-326): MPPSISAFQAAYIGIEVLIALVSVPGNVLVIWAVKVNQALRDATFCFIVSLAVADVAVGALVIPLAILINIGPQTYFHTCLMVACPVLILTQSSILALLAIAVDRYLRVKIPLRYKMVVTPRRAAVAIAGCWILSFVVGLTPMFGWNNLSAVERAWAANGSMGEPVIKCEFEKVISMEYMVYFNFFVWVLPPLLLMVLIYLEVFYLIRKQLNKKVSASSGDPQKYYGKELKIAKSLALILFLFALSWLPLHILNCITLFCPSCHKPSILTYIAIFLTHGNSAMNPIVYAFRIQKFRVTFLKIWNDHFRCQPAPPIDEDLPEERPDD
Description: cAMP (HTRF) functional assay, recombinant CHO cells expressing human A1 receptor, forskolin + agonist CPA. The protocol:
as §1
(§3) For human A1 and A3 receptors, recombinant CHO cells, expressing either A1 or A3-receptor, were used. As both receptors couple to Gi proteins, the assay protocol was adapted:
as §2

A further assay concerns the target T4, human A3 receptor (Homo sapiens, UniProt P0DMS8).
T4 construct: expressed in transfected cells; host or cells: CHO
T4 sequence (P0DMS8 1-318): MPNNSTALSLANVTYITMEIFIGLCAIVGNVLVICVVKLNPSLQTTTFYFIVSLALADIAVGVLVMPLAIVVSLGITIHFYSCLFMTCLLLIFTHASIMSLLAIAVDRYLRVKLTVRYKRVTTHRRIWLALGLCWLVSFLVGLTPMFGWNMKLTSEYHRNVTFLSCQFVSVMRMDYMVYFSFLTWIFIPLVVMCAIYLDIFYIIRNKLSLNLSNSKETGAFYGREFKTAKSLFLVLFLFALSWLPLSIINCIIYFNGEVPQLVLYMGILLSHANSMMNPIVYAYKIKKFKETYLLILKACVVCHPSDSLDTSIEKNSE
Description: cAMP (HTRF) functional assay, recombinant CHO cells expressing human A3 receptor, forskolin + agonist IB-MECA. The protocol:
as §1, §3, §2

T1 sequence (P29274 whole entry): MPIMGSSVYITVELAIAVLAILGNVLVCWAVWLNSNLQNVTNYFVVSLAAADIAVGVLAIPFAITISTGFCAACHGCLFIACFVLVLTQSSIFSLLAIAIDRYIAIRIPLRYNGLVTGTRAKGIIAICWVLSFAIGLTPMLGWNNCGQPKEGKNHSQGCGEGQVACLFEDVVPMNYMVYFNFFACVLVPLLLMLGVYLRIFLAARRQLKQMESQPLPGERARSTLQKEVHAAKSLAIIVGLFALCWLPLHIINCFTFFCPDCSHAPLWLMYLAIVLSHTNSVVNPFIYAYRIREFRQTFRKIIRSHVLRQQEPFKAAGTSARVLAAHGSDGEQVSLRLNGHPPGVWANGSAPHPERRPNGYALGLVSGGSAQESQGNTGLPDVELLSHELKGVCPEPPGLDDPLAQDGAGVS

Turning to `COc1ncc(-c2ccccc2)c2sc(NC(=O)[C@H]3C[C@@H]3OC)nc12` (racemic) [compound 202, (1S,2S)-2-methoxy-N-{4-methoxy-7-phenyl-[1,3]thiazolo[4,5-c]pyridin-2-yl}cyclopropane-1-carboxamide], the IC50 on human A2A receptor was less than 0.1 µM; at human A2B receptor, less than 0.1 µM; on human A1 receptor it was less than 1 µM; at human A3 receptor, less than 1 µM.

With `COCc1ccc(C(=O)Nc2nc3c(OC)ncc(N4CCOCC4)c3s2)cc1` [compound 3, 4-Methoxymethyl-N-(4-methoxy-7-morpholin-4-yl-thiazolo[4,5-c]pyridin-2-yl)-benzamide], the IC50 on human A2A receptor is less than 0.01 µM; on human A2B receptor, less than 1 µM; at human A1 receptor, more than 1 µM; on human A3 receptor it was less than 1 µM.

As for `COc1ncc(-c2cnn(C)c2)c2sc(NC(=O)c3cnc(C)s3)nc12` [compound 131, 2-Methyl-thiazole-5-carboxylic acid [4-methoxy-7-(1-methyl-1H-pyrazol-4-yl)-thiazolo[4,5-c]pyridin-2-yl]-amide], the IC50 on human A2A receptor is less than 0.01 µM; on human A2B receptor it was less than 0.1 µM; on human A3 receptor, more than 1 µM.

Take `COc1nc(F)c(N2CCOCC2)c2sc(NC(=O)c3cnn(C)c3)nc12` [compound 165, 1-Methyl-1H-pyrazole-4-carboxylic acid (6-fluoro-4-methoxy-7-morpholin-4-yl-thiazolo[4,5-c]pyridin-2-yl)-amide]: the values for the IC50 at human A2A receptor, at human A2B receptor and on human A3 receptor were less than 0.01 µM, less than 0.01 µM and less than 1 µM, respectively.

On to `COc1nc(Br)c(N2CCOCC2)c2sc(NC(=O)c3cnn(C)c3)nc12` [compound 178, 1-Methyl-1H-pyrazole-4-carboxylic acid (6-bromo-4-methoxy-7-morpholin-4-yl-thiazolo[4,5-c]pyridin-2-yl)-amide], for which the IC50 is less than 0.01 µM at human A2A receptor, less than 0.1 µM on human A2B receptor and less than 1 µM at human A3 receptor.

In the case of `COc1ncc(-c2ccccc2)c2sc(NC(=O)c3cnn(C)c3)nc12` [compound 188, 1-Methyl-1H-pyrazole-4-carboxylic acid (4-methoxy-7-phenyl-thiazolo[4,5-c]pyridin-2-yl)-amide], the figures for the IC50 on human A2A receptor, at human A2B receptor and at human A3 receptor were less than 0.01 µM, less than 0.01 µM and less than 1 µM, respectively.

Regarding `COc1nc(C#N)c(N2CCOCC2)c2sc(NC(=O)c3cnn(C)c3)nc12` [compound 217, 1-Methyl-1H-pyrazole-4-carboxylic acid (6-cyano-4-methoxy-7-morpholin-4-yl-thiazolo[4,5-c]pyridin-2-yl)-amide], the figures for the IC50 on human A2A receptor, on human A2B receptor and on human A3 receptor were less than 0.01 µM, less than 0.1 µM and less than 1 µM, respectively.

For `COc1ncc(-c2cccnc2)c2sc(NC(=O)c3ccc(C(=O)N(C)C)cc3)nc12` [compound 218, N-(4-Methoxy-7-pyridin-3-yl-thiazolo[4,5-c]pyridin-2-yl)-N′,N′-dimethyl-terephthalamide], the IC50 is less than 0.01 µM at human A2A receptor, less than 0.1 µM at human A2B receptor and more than 1 µM on human A3 receptor.

For the molecule `COc1ncc(-c2ccncc2)c2sc(NC(=O)c3ccc(C(=O)N(C)C)cc3)nc12` [compound 219, N-(4-Methoxy-7-pyridin-4-yl-thiazolo[4,5-c]pyridin-2-yl)-N′,N′-dimethyl-terephthalamide], the IC50 at human A2A receptor is less than 0.01 µM; on human A2B receptor, less than 0.1 µM; at human A1 receptor, more than 1 µM.

Regarding `COc1nc(Cl)c(N2CCOCC2)c2sc(NC(=O)c3cnn(C)c3)nc12` [compound 221, 1-Methyl-1H-pyrazole-4-carboxylic acid (6-chloro-4-methoxy-7-morpholin-4-yl-thiazolo[4,5-c]pyridin-2-yl)-amide], the values for the IC50 on human A2A receptor, on human A2B receptor and on human A3 receptor were less than 0.01 µM, less than 0.1 µM and less than 1 µM, respectively.

On to `COc1nc(C)c(-c2ccccc2)c2sc(NC(=O)N3CCC4(CCOCC4)C3)nc12` [compound 223, 8-Oxa-2-aza-spiro[4.5]decane-2-carboxylic acid (4-methoxy-6-methyl-7-phenyl-thiazolo[4,5-c]pyridin-2-yl)-amide], for which the IC50 was less than 0.01 µM on human A2A receptor, less than 0.1 µM at human A2B receptor and more than 1 µM on human A3 receptor.

Turning to `COCCOc1cccc(-c2cnc(OC)c3nc(NC(=O)c4ccc(C(=O)N(C)C)cc4)sc23)c1` [compound 224, N-{4-Methoxy-7-[3-(2-methoxy-ethoxy)-phenyl]-thiazolo[4,5-c]pyridin-2-yl}-N′,N′-dimethyl-terephthalamide], the figures for the IC50 on human A2A receptor, on human A2B receptor and at human A3 receptor were less than 0.01 µM, less than 0.1 µM and less than 1 µM, respectively.

For the molecule `COCCOc1cccc(-c2cnc(OC)c3nc(NC(=O)N4CCC5(CCOCC5)C4)sc23)c1` [compound 225, 8-Oxa-2-aza-spiro[4.5]decane-2-carboxylic acid (4-methoxy-7-[3-(2-methoxy-ethoxy)-phenyl]-thiazolo[4,5-c]pyridin-2-yl}-amide], the IC50 on human A2A receptor was less than 0.01 µM; on human A2B receptor, less than 0.1 µM; on human A3 receptor, more than 1 µM.

Regarding `COc1nc(F)c(N2CCOCC2)c2sc(NC(=O)c3ccc(N4C(=O)CCC4=O)cc3)nc12` [compound 226, 4-(2,5-Dioxo-pyrrolidin-1-yl)-N-(6-fluoro-4-methoxy-7-morpholin-4-yl-thiazolo[4,5-c]pyridin-2-yl)-benzamide], the IC50 at human A2A receptor is less than 0.01 µM; on human A2B receptor it was less than 0.01 µM; on human A3 receptor, more than 1 µM.

Consider `COc1ncc(-c2ccccc2)c2sc(NC(=O)c3ccc(C(=O)N(C)CCO)cc3)nc12` [compound 227, N-(2-Hydroxy-ethyl)-N′-(4-methoxy-7-phenyl-thiazolo[4,5-c]pyridin-2-yl)-N-methyl-terephthalamide], for which the values for the IC50 at human A2A receptor, on human A2B receptor and on human A3 receptor were less than 0.01 µM, less than 0.01 µM and more than 1 µM, respectively.

Consider `COc1ncc(-c2ccccc2)c2sc(NC(=O)c3ccc(C(=O)NCCO)cc3)nc12` [compound 228, N-(2-Hydroxy-ethyl)-N′-(4-methoxy-7-phenyl-thiazolo[4,5-c]pyridin-2-yl)-terephthalamide], for which the IC50 at human A2A receptor is less than 0.01 µM; at human A2B receptor, less than 0.1 µM; at human A3 receptor it was less than 1 µM.

`COc1ncc(-c2ccccc2)c2sc(NC(=O)c3ccc(C(=O)NCCN(C)C)cc3)nc12` [compound 230, N-(2-Dimethylamino-ethyl)-N′-(4-methoxy-7-phenyl-thiazolo[4,5-c]pyridin-2-yl)-terephthalamide]: the values for the IC50 at human A2A receptor, at human A2B receptor and on human A3 receptor were less than 0.01 µM, less than 0.1 µM and less than 1 µM, respectively.

`COc1ncc(C2CCOCC2)c2sc(NC(=O)N3CCC4(CCOCC4)C3)nc12` [compound 232, 8-Oxa-2-aza-spiro[4.5]decane-2-carboxylic acid [4-methoxy-7-(tetrahydro-pyran-4-yl)-thiazolo[4,5-c]pyridin-2-yl]-amide]: the values for the IC50 at human A2A receptor, on human A2B receptor and at human A1 receptor were less than 0.01 µM, less than 0.1 µM and more than 1 µM, respectively.

For the molecule `COc1ncc(C2=CCOCC2)c2sc(NC(=O)N3CCC4(CCOCC4)C3)nc12` [compound 237, 8-Oxa-2-aza-spiro[4.5]decane-2-carboxylic acid [7-(3,6-dihydro-2H-pyran-4-yl)-4-methoxy-thiazolo[4,5-c]pyridin-2-yl]-amide], the IC50 at human A2A receptor is less than 0.01 µM; on human A2B receptor, less than 0.01 µM; on human A1 receptor it was less than 1 µM.

Usually IC50 stands for the concentration needed to halve the response being measured.
